Laboratory results as given in patent US8163909B2, “Substituted hydroxyethyl amine compounds as beta-secretase modulators and methods of use” (Amgen Inc., priority 2007, dated 2012).
Read-outs that look alike come from different tables or passages of the source.

How the values were obtained:
[1] = target: Beta Secretase enzyme (BACE) (Homo sapiens, UniProt P56817); assay: In vitro enzymatic BACE FRET (fluorescence resonance energy transfer) assay; assay type: biochemical;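 note: fluorescence read after 1 h with 50 nM quenched peptide substrate spanning the BACE cleavage site, in pH 4.2 acetate buffer containing 10% DMSO and nonionic detergent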
Sequence of Beta Secretase enzyme (BACE) (P56817 46-501): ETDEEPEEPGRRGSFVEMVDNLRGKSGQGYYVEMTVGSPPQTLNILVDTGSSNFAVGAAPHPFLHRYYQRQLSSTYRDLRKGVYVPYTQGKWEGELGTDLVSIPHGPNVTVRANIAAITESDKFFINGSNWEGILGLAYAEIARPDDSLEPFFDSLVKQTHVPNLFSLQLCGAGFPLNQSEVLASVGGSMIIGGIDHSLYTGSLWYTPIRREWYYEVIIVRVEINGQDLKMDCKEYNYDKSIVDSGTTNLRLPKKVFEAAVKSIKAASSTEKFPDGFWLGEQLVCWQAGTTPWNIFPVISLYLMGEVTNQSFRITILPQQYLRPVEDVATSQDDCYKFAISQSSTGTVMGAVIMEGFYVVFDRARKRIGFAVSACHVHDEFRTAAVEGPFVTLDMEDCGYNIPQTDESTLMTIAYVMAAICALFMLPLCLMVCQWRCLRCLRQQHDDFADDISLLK

[2] = system: Aβ40 in conditioned medium of cells stably expressing Amyloid Precursor Protein (APP); assay: In vitro BACE cell-based assay (Aβ40 in conditioned medium, sandwich ELISA); conditions: Homo sapiens;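 note: compounds added as a dilution series, secreted peptide quantified by europium time-resolved fluorescence readout, potency fitted from percent of control versus compound concentration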
[3] = Microsomal stability assay, rat liver microsomes;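 note: rat liver microsomes (0.25 mg/mL) with about 1 µM compound plus 1 mM NADPH, pH 7.4, 37 °C for 30 min, parent left measured by LC-MS/MS against 0 min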
[4] = Microsomal stability assay, human liver microsomes;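 note: pooled human liver microsomes at 0.25 mg/mL with 1 µM compound and NADPH at 37 °C, pH 7.4, for 30 min, unchanged parent quantified by LC-MS/MS against the 0 min sample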
CYP2D6 = CYP2D6 (Homo sapiens, UniProt P10635); assay: CYP2D6 inhibition assay (bufuralol, pooled human liver microsomes)
Sequence of CYP2D6 (P10635 whole entry): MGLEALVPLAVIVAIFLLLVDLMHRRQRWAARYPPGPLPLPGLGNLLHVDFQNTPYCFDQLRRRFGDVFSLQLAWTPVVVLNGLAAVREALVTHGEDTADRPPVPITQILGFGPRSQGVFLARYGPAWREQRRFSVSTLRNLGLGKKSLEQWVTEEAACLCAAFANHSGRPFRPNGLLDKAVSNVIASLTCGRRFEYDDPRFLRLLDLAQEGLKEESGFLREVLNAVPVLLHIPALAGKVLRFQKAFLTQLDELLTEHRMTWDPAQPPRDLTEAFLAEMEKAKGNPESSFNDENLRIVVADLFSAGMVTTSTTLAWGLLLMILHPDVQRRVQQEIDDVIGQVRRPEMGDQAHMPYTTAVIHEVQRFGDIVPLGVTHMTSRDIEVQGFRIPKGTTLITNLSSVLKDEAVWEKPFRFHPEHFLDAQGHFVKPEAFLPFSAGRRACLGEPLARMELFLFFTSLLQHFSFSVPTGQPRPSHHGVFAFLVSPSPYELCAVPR

[5] = BACE enzyme assay, IC50's in uM, read-out: BACE1 FRET assay
[6] = HEK293, HEK cell-based assay, IC50's in uM, read-out: HEK cell assay
[7] = 2D6 IC50 (uM), CYP enzyme inhibition
[8] = 2D6 IC50, CYP enzyme inhibition
[9] = read-out: BACE1 FRET assay (IC50)
[10] = HEK293, HEK cells, read-out: HEK cell assay (IC50)
[11] = BACE enzyme assay IC50, read-out: BACE1 FRET assay
[12] = HEK293, HEK cell-based assay IC50, read-out: HEK cell assay
[13] = 2D6 IC50 (uM), CYP2D6 inhibition

Row | Compound | IC50 [1, 9] [µM] | IC50 [2, 10] [µM] | RLM ([3]; rat liver microsomes) [µL/min/mg] | HLM ([4]; human liver microsomes) [µL/min/mg] | IC50 (CYP2D6; 2D6 IC50, CYP2D6 inhibition) [µM] | other results
1 | C#Cc1cc(F)cc(C[C@H](NC(=O)[C@@H](C)OC)[C@H](O)CN[C@H]2CC3(CCC3)Oc3ncc(CC(C)(C)C)cc32)c1 [Example 834, (2R)-N-((1S,2R)-3-(((4′S)-6′-(2,2-dimethylpropyl)-3′,4′-dihydrospiro[cyclobutane-1,2′-pyrano[2,3-b]pyridin]-4′-yl)amino)-1-(3-ethynyl-5-fluorobenzyl)-2-hydroxypropyl)-2-methoxypropanamide] |  |  |  |  |  | IC50 [1, 5]: 0.005 µM; IC50 [2, 6]: 0.011 µM; RLM ([3]; rat liver microsomal data): 98 µL/min/mg; HLM ([4]; human liver microsomal data): 37 µL/min/mg; IC50 (CYP2D6; [7]): 2.5 µM
2 | CO[C@H](C)C(=O)N[C@@H](Cc1cc(F)cc(F)c1)[C@H](O)CN[C@H]1CC2(CCC2)Oc2c1cc(CC(C)C)cc2-n1ccnc1 [compound 461] |  |  |  |  |  | IC50 ([1]; Table 2, read-out: BACE1 FRET assay): 0.026 µM; IC50 ([2]; HEK293, Table 2, HEK cells, read-out: HEK cell assay): 0.028 µM; RLM ([3]; rat liver microsomal data): 126 µL/min/mg; HLM ([4]; human liver microsomal data): 28 µL/min/mg; IC50 (CYP2D6; [8]): 2.2 µM
3 | CO[C@H](C)C(=O)N[C@@H](Cc1cccc(F)c1)[C@H](O)CN[C@H]1CC2(CCC2)Oc2c1cc(CC(C)(C)C)nc2-c1ccncc1 [compound 533] |  |  |  |  |  | IC50 ([1]; BACE enzyme assay, read-out: BACE1 FRET assay): 0.013 µM; IC50 ([2]; HEK293, HEK cells, read-out: HEK cell assay): 0.044 µM; RLM ([3]; rat liver microsomal data): 163 µL/min/mg; HLM ([4]; human liver microsomal data): 29 µL/min/mg; IC50 (CYP2D6; [7]): 1.4 µM
4 | CO[C@H](C)C(=O)N[C@@H](Cc1cc(F)cc(F)c1)[C@H](O)CN[C@H]1CC2(CCC2)Oc2c1cc(CC(C)(C)C)nc2-c1ccncc1 [compound 583] | 0.015 | 0.03 | 80 | 14 | 1.2 | 
5 | CO[C@H](C)C(=O)N[C@@H](Cc1cc(F)cc(F)c1)[C@H](O)CN[C@H]1CC2(CCC2)Oc2c(-c3ccncc3)cc(CC(C)C)cc21 [compound 587] | 0.012 | 0.006 | 73 | 29 | 2.1 | 
6 | CO[C@H](C)C(=O)N[C@@H](Cc1cc(F)cc(F)c1)[C@H](O)CN[C@H]1CC2(CCC2)Oc2c(-c3ccncc3)cc(CC(C)(C)F)cc21 [compound 590] | 0.024 | 0.007 | 105 | 60 | 0.6 | 
7 | CC(=O)N[C@@H](Cc1cccc(F)c1)[C@H](O)CN[C@H]1CC2(CCC2)Oc2c(-c3ccncc3)cc(CC(C)(C)C)cc21 [compound 592] | 0.01 | 0.004 | 73 | 14 | 1.7 | 
8 | CC(=O)N[C@@H](Cc1cccc(F)c1)[C@H](O)CN[C@H]1CC2(CCC2)Oc2c1cc(Cl)cc2-n1ccnc1 [compound 594] | 0.158 | 0.077 | 61 | 44 | 0.3 | 
9 | COCC(=O)N[C@@H](Cc1ccccc1)[C@H](O)CN[C@H]1CC2(CCC2)Oc2c(-c3ccncc3)cc(CC(C)C)cc21 [compound 603] | 0.01 | 0.01 | 172 | 76 | 2.7 | 
10 | CO[C@H](C)C(=O)N[C@@H](Cc1ccccc1)[C@H](O)CN[C@H]1CC2(CCC2)Oc2c(-c3ccncc3)cc(CC(C)C)cc21 [compound 604] | 0.018 | 0.013 | 215 | 89 | 2.7 | 
11 | COCC(=O)N[C@@H](Cc1ccc(F)cc1)[C@H](O)CN[C@H]1CC2(CCC2)Oc2c(-c3ccncc3)cc(CC(C)C)cc21 [compound 605] | 0.014 | 0.016 | 71 | 73 | 2.3 | 
12 | CO[C@H](C)C(=O)N[C@@H](Cc1ccc(F)cc1)[C@H](O)CN[C@H]1CC2(CCC2)Oc2c(-c3ccncc3)cc(CC(C)C)cc21 [compound 606] | 0.041 | 0.026 | 85 | 51 | 2 | 
13 | COCC(=O)N[C@@H](Cc1cccc(F)c1)[C@H](O)CN[C@H]1CC2(CCC2)Oc2c(-c3ccncc3)cc(CC(C)C)cc21 [compound 607] | 0.01 | 0.007 | 72 | 65 | 1.7 | 
14 | COCC(=O)N[C@@H](Cc1cccc(C#N)c1)[C@H](O)CN[C@H]1CC2(CCC2)Oc2c(-c3ccncc3)cc(CC(C)C)cc21 [compound 619] | 0.012 | 0.006 | 85 | 35 | 1.5 | 
15 | CO[C@H](C)C(=O)N[C@@H](Cc1cccc(C#N)c1)[C@H](O)CN[C@H]1CC2(CCC2)Oc2c(-c3ccncc3)cc(CC(C)C)cc21 [compound 620] | 0.01 | 0.005 | 105 | 48 | 1.9 | 
16 | CO[C@H](C)C(=O)N[C@@H](Cc1cc(F)cc(F)c1)[C@H](O)CN[C@H]1CC2(CCC2)Oc2c(-c3cncn3C)cc(CC(C)C)cc21 [compound 622] | 0.026 | 0.007 | 161 | 32 | 6.6 | 
17 | COCC(=O)N[C@@H](Cc1cc(F)cc(F)c1)[C@H](O)CN[C@H]1CC2(CCC2)Oc2c(-c3nccn3C)cc(CC(C)C)cc21 [compound 630] | 0.021 | 0.003 | 220 | 37 | 4 | 
18 | CO[C@H](C)C(=O)N[C@@H](Cc1cncs1)[C@H](O)CN[C@H]1CC2(CCC2)Oc2c(-c3ccncc3)cc(CC(C)(C)C)cc21 [compound 632] | 0.065 | 0.015 | 166 | 57 | 3.1 | 
19 | COCC(=O)N[C@@H](Cc1ccccc1)[C@H](O)CN[C@H]1CC2(CCC2)Oc2c(-c3cncn3C)cc(CC(C)C)cc21 [compound 635] | 0.074 | 0.01 | 420 | 44 | 4.1 | 
20 | CC(=O)N[C@@H](Cc1cccc(-n2ccnc2)c1)[C@H](O)CN[C@H]1CC2(CCC2)Oc2ccc(CC(C)(C)C)cc21 [compound 659] | 0.076 | 0.024 | 413 | 706 | 0.2 | 
21 | COCC(=O)N[C@@H](Cc1cc(F)cc(F)c1)[C@H](O)CN[C@H]1CC2(CCC2)Oc2c1cc(CC(C)C)nc2-c1ccncc1 [compound 682] |  |  | 113 | 34 |  | IC50 [1, 11]: 0.009 µM; IC50 [2, 12]: 0.011 µM; IC50 (CYP2D6; [13]): 1.1 µM
22 | CC(=O)N[C@@H](Cc1cc(F)cc(F)c1)[C@H](O)CN[C@H]1CC2(CCC2)Oc2c1cc(C1CC1)cc2-n1ccnc1 [compound 705] |  |  | 36 | 51 |  | IC50 [1, 11]: 0.032 µM; IC50 [2, 12]: 0.013 µM; IC50 (CYP2D6; [13]): 0.6 µM
23 | CC(C)(C)Cc1cnc2c(c1)[C@@H](NC[C@@H](O)[C@H](Cc1ccc(F)cc1)NC(=O)[C@@H]1CN(Cc3cncs3)CCO1)CC1(CCC1)O2 [compound 788] |  |  |  |  |  | IC50 [1, 5]: 0.016 µM; IC50 [2, 6]: 0.013 µM; RLM ([3]; rat liver microsomal data): 157 µL/min/mg; HLM ([4]; human liver microsomal data): 267 µL/min/mg; IC50 (CYP2D6; [7]): 0.6 µM
24 | C#Cc1cc(C[C@H](NC(=O)CC)[C@H](O)CN[C@H]2CC3(CCC3)Oc3ncc(CC(C)(C)C)cc32)ccc1F [compound 848] |  |  |  |  |  | IC50 [1, 5]: 0.005 µM; IC50 ([2]; HEK293, cell-based assay, HEK cells, IC50's in uM, read-out: HEK cell assay): 0.019 µM; RLM ([3]; rat liver microsomal data): 60 µL/min/mg; HLM ([4]; human liver microsomal data): 36 µL/min/mg; IC50 (CYP2D6; [8]): 0.9 µM
